Test results taken from patent US11352394B2, “Cyclic cell penetrating peptides comprising beta-hairpin motifs and methods of making and using thereof” (Ohio State Innovation Foundation, priority 2016, dated 2022).
Where “and” joins values, the source holds several entries; their conditions need not be identical. Identical values can stand only once. Square brackets hold non-standard residues; d marks the D form. Peptide text beside a SMILES is read from it. pY = N[C@@H](Cc1ccc(OP(=O)(O)O)cc1)C(=O)O; 2Nal = N[C@@H](Cc1ccc2ccccc2c1)C(=O)O; NF = naphthofluorescein

Columns and labels:
[1] = target: Keap1-Nrf2 interaction (Homo sapiens, UniProt Q14145); test: Fluorescence anisotropy-based competition assay, inhibition of Keap1-Nrf2 peptide interaction; assay type: binding; conditions: for IC50: FA competition with fluorescently labeled Nrf2 peptide and Keap1; for Decrease of affinity for Keap1 / inhibition potency: Asn-Ala analogues vs Asp-Pro parents (BH13, BH15, BH17), BH19: truncation of cargo to 6-aa
Chain of Keap1-Nrf2 interaction (Q14145 321-609 limits assumed): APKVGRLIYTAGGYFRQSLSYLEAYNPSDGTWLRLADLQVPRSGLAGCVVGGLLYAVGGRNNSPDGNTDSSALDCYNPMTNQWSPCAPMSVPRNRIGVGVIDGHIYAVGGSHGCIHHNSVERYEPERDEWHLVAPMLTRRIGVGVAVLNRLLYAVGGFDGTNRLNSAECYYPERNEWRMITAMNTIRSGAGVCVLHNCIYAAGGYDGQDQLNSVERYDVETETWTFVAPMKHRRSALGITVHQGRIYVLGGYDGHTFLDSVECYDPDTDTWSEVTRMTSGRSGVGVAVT
Description: The percentage of inhibition was calculated from the fluorescence anisotropy decrease by using equation % Inhibition=(FAmax−FAobs)/(FAmax−FAmin)×100% and plotted against the inhibitor concentration.

[2] = test system: HeLa cells; test: Cellular (cytosolic) uptake of NF-labeled peptides by flow cytometry (MFI); assay type: cell-based; conditions: HeLa cells; for Cellular entry / delivery efficiency (in words) / Cellular Uptake (MFINF, %) / Cellular Uptake (MFI^NF, %) of Keap1-Nrf2 inhibitors: flow cytometry; for Cellular Uptake (MFINF, %) / Cellular Uptake (MFI^NF, %) of Keap1-Nrf2 inhibitors: relative to CPP1 (100%); for Cellular Uptake (MFI^NF, %) of β-hairpin transporters: 5 μM peptide; for Cellular Uptake (MFI^NF, %) of Keap1-Nrf2 inhibitors: NF-labeled peptide
Description: HeLa cells were treated with 5 μM peptide for 2 h, and their cell uptake efficiencies were determined by flow cytometry analysis. The mean fluorescence intensity (MFI) values derived from cytometry analyses reflect the amounts of peptides inside the cytosol and nucleus, whereas any NF-labeled peptide entrapped inside the acidic endosomes are invisible under the experimental conditions (Id.; Qian, Z et al. Chem. Commun. 2015, 51, 2162-2165).
The binding affinity of BH23 (unlabeled) for the Grb2 SH2 domain was then determined by examining its ability to compete with the FAM-labeled ligand for binding to the Grb2 SH2 domain by fluorescence polarization (FP). […] Next, BH23 was labeled with NF at the Asn side chain through a miniPEG-Lys linker and its cytosolic entry efficiency was quantitated by treating HeLa cells with 5 μM of the labeled peptide for 2 h before flow cytometry analysis. […] BH23 was also similarly labeled at the Asn side chain with FAM and its entry into HeLa cells was examined by live-cell confocal microscopy. […] Two control peptides (BH24 and BH25) were also prepared for cellular assays. BH24 and BH25 are structurally similar to BH23, except that BH24 contained a Tyr instead of the pY residue (FIG. 11), whereas in BH25 the two hydrophobic residues critical for cellular uptake (Nal-arg) were replaced with Ala-ala (FIG. 12).
BHT1 and BHT2 were labeled with naphthofluorescein (NF) and their cytosolic uptake into HeLa cells was determined by flow cytometry (Table 10).
Additional cell penetrating compounds were prepared and tested for cytosolic delivery. In these compounds there was no beta-hairpin turn creating moiety.

[3] = test system: Grb2/Ras signaling pathway, MDA-MB-468 breast cancer cells; test: Western blot of MEK and ERK1/2 phosphorylation in EGF-stimulated MDA-MB-468 cells; assay type: cell-based; conditions: peptide 2 h, EGF 50 ng/mL 10 min
Description: FIG. 13 provides western blots depicting the effect of peptides BH23, BH24, and BH25 on the Grb2/Ras signaling pathway. MDA-MB-468 cells were treated with the indicated concentrations of peptide BH23 (a) or control peptides BH24 and BH25 (b) for 2 h and stimulated with EGF (50 ng/mL) for 10 min. The cells were then lysed and the cell lysates were separated on SDS-PAGE and blotted with antibodies specific for phosphorylated and total kinases in the Ras signaling pathway. Glyceraldehyde 3-phosphate dehydrogenase (GAPDH) was used as the loading control. […] Inhibition of ERK1/2 phosphorylation was less dramatic, as expected from its further downstream position on the Grb2/Ras signaling pathway.
FIG. 14(a) is the structure of BH26. FIG. 14(b) provides western blots showing the effect of peptides BH23 and BH26 on the Grb2/Ras signaling pathway. MDA-MB-468 cells were treated with the indicated concentrations of BH23 or BH26 for 2 h and stimulated with EGF (50 ng/mL) for 10 min. The cells were then lysed and the cell lysates were separated on SDS-PAGE and blotted with antibodies specific for phosphorylated and total kinases in the Ras signaling pathway.
BH23 and BH24 were tested for their ability to inhibit the Grb2/Ras signaling pathways, by monitoring the phosphorylation of MEK and ERK1/2 kinases downstream of Ras.

[4] = test system: HO-1 protein (Keap1-Nrf2-ARE pathway), HEK293 cells; test: Anti-HO1 immunoblot of HO-1 protein level in HEK293 cells; assay type: cell-based, human; conditions: 10 μM
Description: FIG. 5 is an image from a Western blot analysis of HO-1 protein levels in HEK293 cells untreated or after treatment with SFN (10 μM) or a cyclic β-hairpin peptide (40 μM).
FIG. 8 is a western blot showing the effect of peptide BH15 on the protein level of HO-1, a protein downstream of the Keap1-Nrf2-ARE pathway. SFN, a small-molecule positive control; blank, no inhibitor.
The cellular activity of Keap1-Nrf2 inhibitors BH13-18 was assessed by examining their effects on the expression levels of HO-1 protein, by anti-HO1 immunoblot analysis. HO-1 is an antioxidant enzyme under the transcriptional control of Nrf2 binding to the ARE, and disruption of the Keap1-Nrf2 interaction is expected to increase the protein level of HO-1.
BH15 enters human cells, binds and inhibits the function of Keap1 (which promotes the ubiquitination and degradation of Nrf2), resulting in increased intracellular levels of Nrf2, a transcription factor. […] This in turn results in the increased levels of HO-1, a protein whose expression is controlled by Nrf2.

[5] = 2 h, DMEM with 10% FBS and 1% ABS, relative to CPP9 (100%)

Compound: CC(C)C[C@@H]1NC(=O)[C@H](CCC(N)=O)NC(=O)[C@H](Cc2ccccc2)NC(=O)[C@H](CCCNC(=N)N)NC(=O)[C@H](CCCNC(=N)N)NC(=O)[C@@H]2CCCN2C(=O)[C@H]2CCCN2C(=O)[C@@H](CCCNC(=N)N)NC(=O)[C@H](Cc2ccc3ccccc3c2)NC(=O)[C@H](Cc2ccccc2)NC(=O)[C@H](Cc2ccccc2)NC(=O)[C@H](CCC(=O)O)NC(=O)CNC(=O)[C@H]([C@@H](C)O)NC(=O)[C@H](CCC(=O)O)NC(=O)[C@@H]2CCCN2C(=O)[C@H](CC(=O)O)NC1=O [BH13, cyclo(F-F-Φ-r-p-P-R-R-F-Q-L-D-P-E-T-G-E)] (cyclo(FF[2Nal][dR][dP]PRRFQLDPETGE))
- IC50 [1]: ~160 nM

Compound: CC(C)C[C@@H]1NC(=O)[C@H](CCC(N)=O)NC(=O)[C@H](Cc2ccccc2)NC(=O)[C@H](CCCNC(=N)N)NC(=O)[C@H](CCCNC(=N)N)NC(=O)[C@@H]2CCCN2C(=O)[C@H]2CCCN2C(=O)[C@@H](CCCNC(=N)N)NC(=O)[C@H](Cc2ccc3ccccc3c2)NC(=O)[C@H](Cc2ccccc2)NC(=O)[C@H](Cc2ccccc2)NC(=O)[C@H](CCC(=O)O)NC(=O)CNC(=O)[C@H]([C@@H](C)O)NC(=O)[C@H](CCC(=O)O)NC(=O)[C@H](C)NC(=O)[C@H](CC(N)=O)NC1=O [BH14, cyclo(F-F-Φ-r-p-P-R-R-F-Q-L-N-A-E-T-G-E)] (cyclo(FF[2Nal][dR][dP]PRRFQLNAETGE))
- Decrease of affinity for Keap1 / inhibition potency [1]: ~10 fold
- IC50 [1]: 1400 ± 130 nM

Compound: CC(C)C[C@@H]1NC(=O)[C@H](Cc2ccccc2)NC(=O)[C@H](CCCNC(=N)N)NC(=O)[C@H](CCCNC(=N)N)NC(=O)[C@@H]2CCCN2C(=O)[C@H]2CCCN2C(=O)[C@@H](CCCNC(=N)N)NC(=O)[C@H](Cc2ccc3ccccc3c2)NC(=O)[C@H](Cc2ccccc2)NC(=O)[C@H](Cc2ccccc2)NC(=O)[C@H](CCC(=O)O)NC(=O)CNC(=O)[C@H]([C@@H](C)O)NC(=O)[C@H](CCC(=O)O)NC(=O)[C@H](C)NC(=O)[C@H](CC(N)=O)NC1=O [BH16, cyclo(F-F-Φ-r-p-P-R-R-F-L-N-A-E-T-G-E)] (cyclo(FF[2Nal][dR][dP]PRRFLNAETGE))
- Decrease of affinity for Keap1 / inhibition potency [1]: ~10 fold

Compound: CC(C)C[C@@H]1NC(=O)[C@H](Cc2ccccc2)NC(=O)[C@H](CCCNC(=N)N)NC(=O)[C@H](CCCNC(=N)N)NC(=O)[C@@H]2CCCN2C(=O)[C@H]2CCCN2C(=O)[C@@H](CCCNC(=N)N)NC(=O)[C@H](Cc2ccc3ccccc3c2)NC(=O)[C@H](Cc2ccccc2)NC(=O)[C@H](CCC(=O)O)NC(=O)CNC(=O)[C@H]([C@@H](C)O)NC(=O)[C@H](CCC(=O)O)NC(=O)[C@H](C)NC(=O)[C@H](CC(N)=O)NC1=O [BH18, cyclo(F-Φ-r-p-P-R-R-F-L-N-A-E-T-G-E)] (cyclo(F[2Nal][dR][dP]PRRFLNAETGE))
- Decrease of affinity for Keap1 / inhibition potency [1]: ~10 fold
- IC50 [1]: 1400 ± 150 nM

Compound: C[C@@H]1NC(=O)[C@H](CC(N)=O)NC(=O)[C@H](Cc2ccccc2)NC(=O)[C@H](CCCNC(=N)N)NC(=O)[C@H](CCCNC(=N)N)NC(=O)[C@@H]2CCCN2C(=O)[C@H]2CCCN2C(=O)[C@@H](CCCNC(=N)N)NC(=O)[C@H](Cc2ccc3ccccc3c2)NC(=O)[C@H](Cc2ccccc2)NC(=O)[C@H](CCC(=O)O)NC(=O)CNC(=O)[C@H]([C@@H](C)O)NC(=O)[C@H](CCC(=O)O)NC1=O [BH19, cyclo(F-Φ-r-p-P-R-R-F-N-A-E-T-G-E)] (cyclo(F[2Nal][dR][dP]PRRFNAETGE))
- Decrease of affinity for Keap1 / inhibition potency [1]: 34 fold

Compound: CC(C)[C@@H]1NC(=O)[C@H](Cc2ccc(OP(=O)(O)O)cc2)NC(=O)[C@H](CCCNC(=N)N)NC(=O)[C@H](CCCNC(=N)N)NC(=O)[C@@H]2CCCN2C(=O)[C@H]2CCCN2C(=O)[C@@H](C)NC(=O)[C@H](C)NC(=O)[C@H](Cc2ccccc2)NC(=O)[C@H](CC(N)=O)NC1=O [BH25, cyclo[F-A-a-p-P-R-R-pY-V-N)] (cyclo([pY]VNFA[dA][dP]PRR))
- Cellular entry / delivery efficiency (in words) [2]: poor cellular uptake
- Phosphorylation of MEK [3]: did not decrease and not

Compound: C[S+]([O-])CCCCN=C=S (centres unmarked) [SFN, Sulforaphane, reference compound]
- HO-1 level (positive control) [4]: increased

Compound: cyclo(D-A-F-Φ-r-p-P-R-R-F-D-A-D-Q)-miniPEG-K(NF) (cyclo(DAF[2Nal][dR][dP]PRRFDADQ); not fully specified (residue 14); printed as cyclo(D-A-F-Φ-r-p-P-R-R-F-D-A-D-Q)-miniPEG-K(NF)) [BH10]
- Cellular Uptake (MFINF, %) ([2]; 5 μM NF-labeled peptide, 2 h): 44 ± 19%
- Cellular entry / delivery efficiency (in words) [2]: lowest delivery efficiency

Compound: cyclo(FΦrpPRRFAQ)-miniPEG-K(NF) (cyclo(F[2Nal][dR][dP]PRRFAQ); not fully specified (residue 10); printed as cyclo(FΦrpPRRFAQ)-miniPEG-K(NF)) [BHT2]
- Cellular Uptake (MFI^NF, %) of β-hairpin transporters [2, 5]: 15% and 15 ± 2%

Compound: cyclo(R-A-F-Φ-r-p-P-R-R-F-R-A-R-Q)-miniPEG-K(NF) (cyclo(RAF[2Nal][dR][dP]PRRFRARQ); not fully specified (residue 14); printed as cyclo(R-A-F-Φ-r-p-P-R-R-F-R-A-R-Q)-miniPEG-K(NF)) [BH9]
- Cellular Uptake (MFINF, %) ([2]; 5 μM NF-labeled peptide, 2 h): 104 ± 27%

Compound: cyclo(S-A-S-F-Φ-r-p-P-R-R-F-S-A-S-A-Q)-miniPEG-K(NF) (cyclo(SASF[2Nal][dR][dP]PRRFSASAQ); not fully specified (residue 16); printed as cyclo(S-A-S-F-Φ-r-p-P-R-R-F-S-A-S-A-Q)-miniPEG-K(NF)) [BH11]
- Cellular Uptake (MFINF, %) ([2]; 5 μM NF-labeled peptide, 2 h): 245 ± 16%

Compound: cyclo(f-Φ-R-r-R-r-Q)-miniPEG-K(NF) (cyclo([dF][2Nal]R[dR]R[dR]Q); not fully specified (residue 7); printed as cyclo(f-Φ-R-r-R-r-Q)-miniPEG-K(NF)) [CPP9, reference compound]
- Cellular Uptake (MFI^NF, %), cytosolic entry efficiency ([2]; 5 μM NF-labeled peptide, 2 h, DMEM with 10% FBS and 1% ABS, relative to CPP9 (100%)): 100%
- Cellular Uptake (MFI^NF, %) of β-hairpin transporters [2, 5]: 100%

Compound: cyclo[F-F-Φ-r-P-p-R-R-F-Q-K(NF)-D-P-E-T-G-E] (cyclo(FF[2Nal][dR]P[dP]RRFQK(NF)DPETGE)) [BH22]
- Cellular Uptake (MFI^NF, %) of Keap1-Nrf2 inhibitors [2]: 56.9%
- Cellular entry, fold less efficient than BH20 ([2]; -L-Pro-D-Pro- instead of -D-Pro-L-Pro-): ~2 fold

Compound: cyclo[F-F-Φ-r-p-P-R-R-F-Q-K(NF)-D-P-E-T-G-E] (cyclo(FF[2Nal][dR][dP]PRRFQK(NF)DPETGE)) [BH20]
- Cellular Uptake (MFI^NF, %) of Keap1-Nrf2 inhibitors [2]: 122.4%
- Cellular entry / delivery efficiency (in words) [2]: less efficiently than BH6 and BH12

Compound: cyclo[F-Φ-r-p-P-R-R-F-K(NF)-D-P-E-T-G-E] (cyclo(F[2Nal][dR][dP]PRRFK(NF)DPETGE)) [BH21]
- Cellular Uptake (MFI^NF, %) of Keap1-Nrf2 inhibitors [2]: 44.6%
- Cellular entry / delivery efficiency (in words) [2]: less efficiently than BH6 and BH12
